The subject of data set [1] is γδ T lymphocytes of peripheral blood mononucleate cells (PBMCs). Description: Cytokine production assay on peripheral blood mononucleate cells (PBMCs), cytofluorimetry. To be noted: for activation at 10 µM / activation at 100 µM / activation at 1000 µM: Homo sapiens, PBMC, read-out: % increase in γδ T lymphocytes producing TNFα; for % increase in γδ T lymphocytes producing INFγ: IPP (10 µM) std = 100. The data set is classed as cell-based, human. On the procedure:
γδ T lymphocyte activation was tested by an assay involving the production of cytokines such as TNFα and IFNγ by the γδ T lymphocytes of peripheral blood mononucleate cells (PBMCs) from healthy donors (Poccia, F. et al., The Journal of Immunology 1997, 159, 6009-6017).
Mononucleate cells (PBMCs) were isolated from the peripheral blood of healthy donors, cultured at 37°C on a complete medium comprising RPMI 1640, 10% FCS, 1% L-glutamine, 1% penicillin-streptomycin in the presence of interleukin 2 (IL-2), T lymphocyte growth factor, and 5% CO2 in a controlled humidity environment, and then stimulated with isopentenyl pyrophosphate (IPP 10 µM) as a positive activation control and with various doses (10 µM, 100 µM) and 1000 µM) of compounds according to the invention, respectively.
Then it was performed a cytofluorimetric labelling using specific monoclonal antibodies (membrane labelling for the expansion and intra-cytoplasm labelling for the cytokines) and a cytofluorimetric measurement in order to establish the percentage of γδ T cells producing TNFα and IFNγ (cytokine production assay).

A further data set has as its system γδ T lymphocyte line. Description: ELISA test for the production of TNFα in the γδ T lymphocyte line. The class given is cell-based, human. To be noted: for EC50: Homo sapiens, T-lymphocyte, 24 h. As for the experimental part: A buffy coat from a healthy donor with a high basal percentage of γδ T lymphocytes (approximately 6%) was selected for growth of the γδ T lymphocyte lines.
The PBMCs were separated out and cultured at a concentration of 1 x 10^6 cells/ml in the presence of IPP (160 ng/ml) and IL-2 (100 U/ml).
After 7 days incubation at 37°C with 5% CO2, 3 ml of medium were sampled and replaced with the same amount of fresh medium ennched with IL-2 (final concentration 100 U/ml).
After a further 7 days in the incubator an aliquot of the cultured cells was taken to label the membrane and measure the percentage of γδ T cells obtained from the expansion.
This cell line was then used to evaluate the production of TNFα following stimulation of the cells with the compounds under investigation, using an ELISA test.
In the ELISA test there were used cells from the line produced as disclosed above in a concentration of 2.5 x 10^5 cells/ml (5 x 10^4 cells/well).
The cells were then stimulated with the compounds under investigation and with isopentenyl pyrophosphate (IPP) as a reference at scalar doses.
After 24 hours the supernatants from the wells containing the stimulated cells were sampled and the ELISA test was carried out using the "Human TNFα Screening Set" kit (Endogen). The kit provides for treatment with an anti-TNFα biotinylate polyclonal antibody, the addition of peroxidase conjugated with streptavidine and quantitative determination using a chromogenic substrate. The plates were read spectrophotometrically at 450 nm.
Each compound was tested in duplicate.
On the technique in general: In an ELISA, binding on a coated surface is turned into a signal by an enzyme label.

A further data set relates to alkaline phosphatase. Description: Stability test in alkaline aqueous solution in the presence of alkaline phosphatase (enzyme hydrolysis), HPLC-MS. The note with it: for resistance to hydrolysis: in words, summary of Table 1; for Percentage of non-hydrolysed compound: 2 mM, pH 8 TRIS-HCl buffer, alkaline phosphatase, ambient temperature. On the procedure:
The following compounds were selected for the stability tests in alkaline aqueous solution in the presence of alkaline phosphatase (SIGMA Phosphatase, alkaline-Agarose from calf intestine-P0762): [drawing 25] • Solution A: • pH 8 solution: TRIS-HCl buffer and 2 mM of MgCl2; • Solution B: • comparison versus solution A: 2 mM isopentenyl pyrophosphate (IPP) solution; • Solution C: • 2 mM isopentenyl thiopyrophosphate solution (Compound 8) of this invention into Solution A, • Solution D: • Solution of phosphatase enzyme immobilised on a solid substrate (agarose), 50 biological units into 10 ml of Solution A.
20 µl of Solution D were added to 0.5 ml of Solution B. The system was allowed to stand at ambient temperature under stirring. The solution was filtered to remove the enzyme and it was then analysed with HPLC-MS at predetermined time intervals (20, 30, 40, 50 and 60 minutes).
The same procedure was carried out with Solution C.

Another data set deals with Vγ9Vδ2 cells. Description: Peripheral blood mononucleate cell (PBMC) cellular expansion assay. The class given is cell-based, human. The note with it: tenth day of culture. As for the experimental part: The effect of the compounds of this invention on the expansion of γδ T lymphocytes was investigated through an assay carried out on γδ T lymphocytes originating from the peripheral blood mononucleate cells from healthy donors (PBMCs).
The PBMCs were separated by centrifuging (Ficoll) on whole blood from samples (residual samples) from 7 healthy donors.
In control experiments the cells were treated with IPP at the same concentrations and under the same Experimental conditions.
On the tenth day of culture the cells were recovered and counted by means of a living count with Trypan Blue, and labelled with the same anti-Vd2-FITC antibody, and finally tested by cytofluorimetry to evaluate the percentage of Vγ9Vδ2 cells.
The absolute number of Vγ9Vδ2 cells was calculated using the following formula: No. of Vγ9Vδ2 cells = (total absolute no.of cells after expansion x%of Vγ9Vδ2cells after expansion)/100. [formula]

The structures appear in SMILES notation. Where a name gives a salt, the structure may show the parent alone.

A word on the EC50: it is the concentration giving half of the maximal effect. Low values mean higher potency in that assay, high ones lower potency in that assay. In the case of `O=P(O)(O)OP(=O)(O)SCCCCCl` [Compound 1, S-(4-chlorobutyl) ester of the trisodium salt of thiodiphosphoric acid], in data set [1], the activation at 10 µM stood at 81%, the activation at 100 µM was 127% and the activation at 1000 µM amounted to 81.5%. For the same molecule, in data set [1] (PBMC/IL-2, 10 µM), the “% increase in γδ T lymphocytes producing INFγ” value turned out to be 131%. The “% increase in γδ T lymphocytes producing INFγ” value in data set [1] (PBMC/IL-2, 100 µM) was 94%. Further, the “% increase in γδ T lymphocytes producing INFγ” value in data set [1] (PBMC/IL-2, 1000 µM) worked out at 132%. In the data set with γδ T lymphocyte line, the EC50 was 100 µM.

For the molecule `O=P(O)(O)OP(=O)(O)SCCOCCCl` [Compound 2, S-[2-(2-chloroethoxy)ethyl] ester of the trisodium salt of thiodiphosphoric acid], in data set [1], the activation at 10 µM was found to be 60.4%, the activation at 100 µM turned out to be 71.8% and the activation at 1000 µM was 765%. Besides, the “% increase in γδ T lymphocytes producing INFγ” value in data set [1] (PBMC/IL-2, 10 µM) worked out at 56.4%. In addition, the “% increase in γδ T lymphocytes producing INFγ” value in data set [1] (PBMC/IL-2, 100 µM) worked out at 67%. Also, the “% increase in γδ T lymphocytes producing INFγ” value in data set [1] (PBMC/IL-2, 1000 µM) is 97.3%. For the same molecule, the response in the data set on γδ T lymphocyte line was half-maximal at 0.39 µM (EC50).

Take `O=P(O)(O)OP(=O)(O)SCCC1CC1` [Compound 3, S-(2-cyclopropylethyl)ester of the trisodium salt of thiodiphosphoric acid]: in data set [1], the activation at 10 µM worked out at 495%, the activation at 100 µM is 123% and the activation at 1000 µM is 158%. Besides, in the data set with γδ T lymphocyte line, the half-maximal effective concentration (EC50) amounted to 13 µM.

With `C=CCOCCSP(=O)(O)OP(=O)(O)O` [Compound 4, S-[2-(allyloxy)ethyl]ester of the trisodium salt of thiodiphosphoric acid], in data set [1], the activation at 10 µM was found to be 70.7%, the activation at 100 µM came to 130% and the activation at 1000 µM came to 299%. In addition, the EC50 in the data set with γδ T lymphocyte line is 10 µM.

On to `C[C@H](O)CCSP(=O)(O)OP(=O)(O)O` [Compound 6, S-(3-hydroxybutyl)ester of the trisodium salt of biodiphosphoric acid], for which, in data set [1], the activation at 10 µM stood at 40%, the activation at 100 µM is 114% and the activation at 1000 µM is 310%. In the data set with γδ T lymphocyte line, this molecule had a 50% effective concentration (EC50) of 75 µM.

For `C=C(C)CCSP(=O)(O)OP(=O)(O)O` [Compound 8, S-(3-methyl-3-butenyl)ester of the triammonium salt of thiodiphosphoric acid], in the data set with alkaline phosphatase, the resistance to hydrolysis result is “very much more resistant to hydrolysis”. Also, the “Percentage of non-hydrolysed compound” value in the data set with alkaline phosphatase (t = 0 min) is on record as 100%; with alkaline phosphatase (t = 20 min), 90%; in the data set on alkaline phosphatase (t = 30 min), 90%; in the data set on alkaline phosphatase (t = 40 min), 90%; in the data set on alkaline phosphatase (t = 50 min), 90%; with alkaline phosphatase (t = 60 min) it was 90%. The activation at 10 µM in data set [1] is 39%. Further, in data set [1], the activation at 100 µM worked out at 92.6%. Besides, the activation at 1000 µM in data set [1] came out at 174%. In addition, the “% increase in γδ T lymphocytes producing INFγ” value in data set [1] (PBMC/IL-2, 10 µM) is 21%; in data set [1] (PBMC/IL-2, 100 µM), 865%; in data set [1] (PBMC/IL-2, 1000 µM) it was 182%. Besides, the EC50 with γδ T lymphocyte line was 3.75 µM.

For the molecule `C/C(=C\CSP(=O)(O)OP(=O)(O)O)CO` [Compound 9, S-[(E)-4-hydroxy-3-methyl-2-butenyl]ester of the trisodium salt of thiodiphosphoric acid], in data set [1], the activation at 10 µM is 82.3%. Further, in data set [1], the activation at 100 µM worked out at 175%. Moreover, the activation at 1000 µM in data set [1] stood at 464%. Besides, the “activity (γδ T cells producing cytokines)” value in data set [1] (in words, at 100 and 1000 µM) is “a very clear increase”. Also, the “Expansion Index” value with Vγ9Vδ2 cells (Donor A) was found to be 129.28; in the data set on Vγ9Vδ2 cells (Donor B) it was 80.96; in the data set on Vγ9Vδ2 cells (Donor C), 5.30; in the data set with Vγ9Vδ2 cells (Donor D) it was 59.10; with Vγ9Vδ2 cells (Donor E) it was 624.02; in the data set on Vγ9Vδ2 cells (Donor F) it was 35.37. The “Expansion Index” value in the data set with Vγ9Vδ2 cells (Donor G) is on record as 42.09. Further, in the data set with γδ T lymphocyte line, the 50% effective concentration (EC50) was 0.0048 µM. Further, the “EC50 relative to the EC50 for IPP” value in the data set with γδ T lymphocyte line (production of TNFα, γδ T lymphocyte line) is given as 1000 times.

Regarding `C=C(C)CCO[P@@](=O)(O)OP(=O)(O)O` [IPP, isopentenyl pyrophosphate, reference compound], the resistance to hydrolysis entry with alkaline phosphatase is recorded as “degrades rapidly”. The “Percentage of non-hydrolysed compound” value in the data set with alkaline phosphatase (t = 0 min) amounted to 94%; with alkaline phosphatase (t = 20 min), 48%; with alkaline phosphatase (t = 30 min) it was 54%; with alkaline phosphatase (t = 60 min) it was 27%. Moreover, the activation at 10 µM in data set [1] amounted to 100%. The “% increase in γδ T lymphocytes producing INFγ” value in data set [1] (PBMC/IL-2, 10 µM) stood at 100%.
